Laboratory results as given in ChEMBL document CHEMBL5465560, “Selectivity Literature for EUbOPEN Chemogenomic Library” (2024).

Columns and labels:
[1] = test system: Platelet-derived growth factor receptor alpha (Homo sapiens), P16234 [T674I]; assay: (§1) Selectivity interaction (Kinase panel (Z-LYTE Assay)) EUB0001632a PDGFRA; details: at 10 µM
[2] = target: Platelet-derived growth factor receptor alpha (Homo sapiens, UniProt P16234); assay: as §1; details: at 10 µM
[3] = test system: Platelet-derived growth factor receptor alpha (Homo sapiens), P16234 [D842V]; assay: as §1; details: at 10 µM
Chain of Platelet-derived growth factor receptor alpha (Homo sapiens), P16234 [D842V] (P16234 whole entry D842V): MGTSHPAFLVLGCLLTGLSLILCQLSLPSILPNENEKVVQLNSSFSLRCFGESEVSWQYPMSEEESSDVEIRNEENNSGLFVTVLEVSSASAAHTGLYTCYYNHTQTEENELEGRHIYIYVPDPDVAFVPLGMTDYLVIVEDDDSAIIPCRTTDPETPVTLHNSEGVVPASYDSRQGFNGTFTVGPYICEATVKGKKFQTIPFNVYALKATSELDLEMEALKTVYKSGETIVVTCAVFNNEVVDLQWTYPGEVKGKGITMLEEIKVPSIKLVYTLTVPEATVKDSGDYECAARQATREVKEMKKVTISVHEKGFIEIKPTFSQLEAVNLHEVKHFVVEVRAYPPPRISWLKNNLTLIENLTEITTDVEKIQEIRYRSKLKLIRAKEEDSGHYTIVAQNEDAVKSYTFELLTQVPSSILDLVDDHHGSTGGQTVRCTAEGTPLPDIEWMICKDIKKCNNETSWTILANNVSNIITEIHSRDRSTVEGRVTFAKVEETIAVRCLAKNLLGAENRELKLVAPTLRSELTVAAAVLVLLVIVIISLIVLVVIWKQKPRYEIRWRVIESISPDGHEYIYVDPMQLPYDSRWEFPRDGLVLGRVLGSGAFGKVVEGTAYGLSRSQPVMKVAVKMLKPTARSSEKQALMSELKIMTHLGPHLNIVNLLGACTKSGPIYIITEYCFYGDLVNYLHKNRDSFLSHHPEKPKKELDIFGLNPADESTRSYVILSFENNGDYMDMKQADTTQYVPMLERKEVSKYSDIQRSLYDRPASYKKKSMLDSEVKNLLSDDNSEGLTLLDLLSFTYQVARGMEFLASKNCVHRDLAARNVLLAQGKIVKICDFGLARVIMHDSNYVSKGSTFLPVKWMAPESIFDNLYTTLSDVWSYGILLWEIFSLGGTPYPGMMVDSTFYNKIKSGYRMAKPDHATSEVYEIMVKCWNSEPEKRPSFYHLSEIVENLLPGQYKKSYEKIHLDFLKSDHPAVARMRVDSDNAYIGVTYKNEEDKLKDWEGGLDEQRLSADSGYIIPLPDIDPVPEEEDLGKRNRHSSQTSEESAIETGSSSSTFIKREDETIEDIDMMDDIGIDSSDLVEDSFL

[4] = test system: Platelet-derived growth factor receptor alpha (Homo sapiens), P16234 [V561D]; assay: as §1; details: at 10 µM
Chain of Platelet-derived growth factor receptor alpha (Homo sapiens), P16234 [V561D] (P16234 whole entry V561D): as the sequence (P16234 whole entry D842V) above, with V561D, V842D counted along it

[5] = target: Serine/threonine-protein kinase MRCK beta (Homo sapiens) (UniProt Q9Y5S2); assay: Selectivity interaction (KinomeScan (DiscoverX)) EUB0000666a CDC42BPB; details: at 10 µM
[6] = target: Tyrosine-protein kinase ABL2 (Homo sapiens, UniProt P42684); assay: Selectivity interaction (ActivX KiNativ screen (kinase selectivity in THP-1 cell lysates)) EUB0000639a ABL2; type: subcellular; details: lysate, at 0.2 µM
[7] = target: MAP/microtubule affinity-regulating kinase 3 (Homo sapiens) (UniProt P27448); assay: Selectivity interaction (ActivX KiNativ screen (kinase selectivity in THP-1 cell lysates)) EUB0000639a MARK3; type: subcellular; details: lysate, at 0.2 µM
Chain of MAP/microtubule affinity-regulating kinase 3 (Homo sapiens) (P27448 whole entry, looked up): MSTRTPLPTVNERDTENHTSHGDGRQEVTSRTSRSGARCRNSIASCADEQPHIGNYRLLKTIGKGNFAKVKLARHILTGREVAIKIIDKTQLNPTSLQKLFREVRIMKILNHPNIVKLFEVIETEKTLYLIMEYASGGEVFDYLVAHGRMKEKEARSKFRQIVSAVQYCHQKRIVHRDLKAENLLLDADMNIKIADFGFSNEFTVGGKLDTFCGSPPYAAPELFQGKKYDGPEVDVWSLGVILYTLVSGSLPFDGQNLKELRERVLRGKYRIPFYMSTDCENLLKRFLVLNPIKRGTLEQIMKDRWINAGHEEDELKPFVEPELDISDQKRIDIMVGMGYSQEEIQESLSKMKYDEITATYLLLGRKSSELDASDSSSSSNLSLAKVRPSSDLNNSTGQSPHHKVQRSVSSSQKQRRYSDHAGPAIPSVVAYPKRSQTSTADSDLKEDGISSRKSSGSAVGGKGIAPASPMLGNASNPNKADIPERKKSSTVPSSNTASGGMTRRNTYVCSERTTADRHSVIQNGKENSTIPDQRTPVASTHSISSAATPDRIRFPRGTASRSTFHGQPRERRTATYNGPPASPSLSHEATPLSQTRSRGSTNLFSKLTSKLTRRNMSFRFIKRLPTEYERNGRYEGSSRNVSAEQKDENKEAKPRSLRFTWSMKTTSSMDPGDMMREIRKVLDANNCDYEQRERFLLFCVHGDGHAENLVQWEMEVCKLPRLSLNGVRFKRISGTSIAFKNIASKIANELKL

[8] = target: T1, Non-receptor tyrosine-protein kinase TNK1 (Homo sapiens) (UniProt Q13470); assay: Selectivity interaction (KinomeScan (DiscoverX)) EUB0000595a TNK1; details: at 10 µM
T1 sequence (whole entry): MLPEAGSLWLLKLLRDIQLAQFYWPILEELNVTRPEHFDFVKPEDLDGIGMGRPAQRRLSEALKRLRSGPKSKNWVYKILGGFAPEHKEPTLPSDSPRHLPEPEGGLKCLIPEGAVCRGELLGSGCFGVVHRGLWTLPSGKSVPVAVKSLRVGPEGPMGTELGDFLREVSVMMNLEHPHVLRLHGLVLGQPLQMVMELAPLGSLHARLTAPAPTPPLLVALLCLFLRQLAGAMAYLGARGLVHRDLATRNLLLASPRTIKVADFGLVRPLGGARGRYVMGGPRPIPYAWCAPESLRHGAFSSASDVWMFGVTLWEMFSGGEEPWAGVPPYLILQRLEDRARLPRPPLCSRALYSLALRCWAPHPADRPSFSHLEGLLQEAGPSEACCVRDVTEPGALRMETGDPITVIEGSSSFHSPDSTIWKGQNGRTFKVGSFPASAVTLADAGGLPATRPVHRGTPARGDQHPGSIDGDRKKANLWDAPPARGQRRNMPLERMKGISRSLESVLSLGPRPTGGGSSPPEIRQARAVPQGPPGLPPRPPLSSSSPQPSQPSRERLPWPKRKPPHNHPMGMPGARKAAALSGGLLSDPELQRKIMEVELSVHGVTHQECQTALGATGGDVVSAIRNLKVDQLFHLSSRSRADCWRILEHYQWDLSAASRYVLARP

[9] = target: Fibroblast growth factor receptor 4 (Homo sapiens, UniProt P22455); assay: Selectivity interaction (KinomeScan (DiscoverX)) EUB0000655a FGFR4; details: at 10 µM
Chain of Fibroblast growth factor receptor 4 (P22455 22-802 limits assumed): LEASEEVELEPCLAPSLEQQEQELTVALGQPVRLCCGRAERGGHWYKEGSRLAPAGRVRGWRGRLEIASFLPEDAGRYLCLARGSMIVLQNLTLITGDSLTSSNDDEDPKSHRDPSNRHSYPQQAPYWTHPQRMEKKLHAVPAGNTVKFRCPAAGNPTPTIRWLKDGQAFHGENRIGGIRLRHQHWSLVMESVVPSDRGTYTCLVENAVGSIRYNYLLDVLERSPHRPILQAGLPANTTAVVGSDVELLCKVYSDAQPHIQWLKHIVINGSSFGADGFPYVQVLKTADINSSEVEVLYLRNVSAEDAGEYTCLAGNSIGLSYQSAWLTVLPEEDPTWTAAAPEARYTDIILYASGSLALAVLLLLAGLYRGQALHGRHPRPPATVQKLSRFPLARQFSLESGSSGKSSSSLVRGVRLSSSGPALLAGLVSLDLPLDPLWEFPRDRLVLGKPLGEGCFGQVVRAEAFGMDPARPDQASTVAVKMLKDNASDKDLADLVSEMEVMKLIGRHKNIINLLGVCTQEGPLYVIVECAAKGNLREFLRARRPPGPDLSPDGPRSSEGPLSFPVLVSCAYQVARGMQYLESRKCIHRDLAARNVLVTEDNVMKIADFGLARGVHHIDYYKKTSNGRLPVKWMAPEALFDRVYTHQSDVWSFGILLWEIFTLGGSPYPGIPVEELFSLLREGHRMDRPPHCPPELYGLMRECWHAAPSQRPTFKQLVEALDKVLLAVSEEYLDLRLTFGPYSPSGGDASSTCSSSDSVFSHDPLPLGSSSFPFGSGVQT

[10] = test system: Epidermal growth factor receptor (Homo sapiens), P00533 [UNDEFINED MUTATION]; assay: Selectivity interaction (KinomeScan (DiscoverX)) EUB0000045b EGFR; details: at 1 µM
Chain of Epidermal growth factor receptor (Homo sapiens), P00533 [UNDEFINED MUTATION] (P00533 whole entry, looked up, stated change not applied): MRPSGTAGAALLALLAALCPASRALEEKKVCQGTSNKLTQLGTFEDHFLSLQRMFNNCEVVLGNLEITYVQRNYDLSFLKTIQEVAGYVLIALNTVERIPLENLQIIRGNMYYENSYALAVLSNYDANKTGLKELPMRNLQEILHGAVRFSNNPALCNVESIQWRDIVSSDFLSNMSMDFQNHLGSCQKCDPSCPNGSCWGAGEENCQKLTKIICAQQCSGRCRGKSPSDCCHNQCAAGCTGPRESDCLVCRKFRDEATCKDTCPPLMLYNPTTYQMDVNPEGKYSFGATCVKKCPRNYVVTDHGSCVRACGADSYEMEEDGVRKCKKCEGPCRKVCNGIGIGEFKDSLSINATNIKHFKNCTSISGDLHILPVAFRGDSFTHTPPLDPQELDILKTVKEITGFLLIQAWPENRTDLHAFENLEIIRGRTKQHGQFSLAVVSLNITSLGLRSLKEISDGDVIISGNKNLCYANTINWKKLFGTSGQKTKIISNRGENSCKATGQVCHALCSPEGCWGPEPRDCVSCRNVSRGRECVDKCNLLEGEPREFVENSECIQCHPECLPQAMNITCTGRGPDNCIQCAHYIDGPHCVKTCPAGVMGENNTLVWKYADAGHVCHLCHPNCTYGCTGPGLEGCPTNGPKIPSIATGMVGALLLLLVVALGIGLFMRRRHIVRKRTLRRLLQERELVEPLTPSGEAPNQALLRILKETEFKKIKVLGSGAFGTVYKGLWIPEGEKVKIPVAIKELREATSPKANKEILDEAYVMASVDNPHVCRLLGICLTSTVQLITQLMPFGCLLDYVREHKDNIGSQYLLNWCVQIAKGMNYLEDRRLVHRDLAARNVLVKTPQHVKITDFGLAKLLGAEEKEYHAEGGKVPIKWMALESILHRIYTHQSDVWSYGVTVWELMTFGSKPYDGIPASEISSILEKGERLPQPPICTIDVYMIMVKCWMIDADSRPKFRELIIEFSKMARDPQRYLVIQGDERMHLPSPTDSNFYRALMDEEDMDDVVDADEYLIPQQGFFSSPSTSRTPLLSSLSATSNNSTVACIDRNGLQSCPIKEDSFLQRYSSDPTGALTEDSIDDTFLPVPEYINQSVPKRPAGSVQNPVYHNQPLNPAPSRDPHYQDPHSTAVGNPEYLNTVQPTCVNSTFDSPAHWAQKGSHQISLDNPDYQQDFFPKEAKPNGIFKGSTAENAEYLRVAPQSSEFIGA

[11] = test system: Tyrosine-protein kinase ABL1 (Homo sapiens), P00519 [H396P]; assay: Selectivity interaction (KinomeScan (DiscoverX)) EUB0001079a ABL1; details: at 1 µM
[12] = target: T2, Serine/threonine-protein kinase TAO3 (Homo sapiens) (UniProt Q9H2K8); assay: Selectivity interaction (KinomeScan (DiscoverX)) EUB0000092b TAOK3; details: at 10 µM
T2 sequence (whole entry): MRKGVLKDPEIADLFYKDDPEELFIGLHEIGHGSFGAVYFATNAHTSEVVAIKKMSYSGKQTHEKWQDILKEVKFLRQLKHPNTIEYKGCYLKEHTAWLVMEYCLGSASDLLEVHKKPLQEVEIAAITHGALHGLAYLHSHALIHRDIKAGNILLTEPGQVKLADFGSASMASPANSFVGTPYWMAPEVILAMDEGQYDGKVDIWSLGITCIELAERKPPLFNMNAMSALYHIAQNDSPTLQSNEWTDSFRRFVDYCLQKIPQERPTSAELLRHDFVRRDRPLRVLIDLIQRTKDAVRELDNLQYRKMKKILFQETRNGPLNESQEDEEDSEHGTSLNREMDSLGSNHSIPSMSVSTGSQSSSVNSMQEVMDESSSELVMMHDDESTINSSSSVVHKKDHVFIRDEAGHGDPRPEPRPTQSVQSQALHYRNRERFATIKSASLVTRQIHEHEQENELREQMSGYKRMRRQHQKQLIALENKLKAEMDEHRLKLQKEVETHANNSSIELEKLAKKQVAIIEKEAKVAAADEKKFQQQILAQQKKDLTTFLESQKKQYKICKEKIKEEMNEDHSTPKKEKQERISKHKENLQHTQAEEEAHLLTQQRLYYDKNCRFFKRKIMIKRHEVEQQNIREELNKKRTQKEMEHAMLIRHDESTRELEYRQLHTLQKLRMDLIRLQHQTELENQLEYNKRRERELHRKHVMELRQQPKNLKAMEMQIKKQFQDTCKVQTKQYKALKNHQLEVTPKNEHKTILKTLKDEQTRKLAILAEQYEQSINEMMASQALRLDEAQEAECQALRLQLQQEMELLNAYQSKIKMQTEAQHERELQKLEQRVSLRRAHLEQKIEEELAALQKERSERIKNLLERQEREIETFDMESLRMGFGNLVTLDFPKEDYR

[13] = target: Cyclin-dependent kinase 2 (Homo sapiens, UniProt P24941); assay: Selectivity interaction (KinomeScan (DiscoverX)) EUB0000092b CDK2; details: at 10 µM
[14] = target: T3, Dual specificity mitogen-activated protein kinase kinase 6 (Homo sapiens) (UniProt P52564); assay: Selectivity interaction (KinomeScan (DiscoverX)) EUB0001619a MAP2K6; details: at 1 µM
T3 sequence (whole entry): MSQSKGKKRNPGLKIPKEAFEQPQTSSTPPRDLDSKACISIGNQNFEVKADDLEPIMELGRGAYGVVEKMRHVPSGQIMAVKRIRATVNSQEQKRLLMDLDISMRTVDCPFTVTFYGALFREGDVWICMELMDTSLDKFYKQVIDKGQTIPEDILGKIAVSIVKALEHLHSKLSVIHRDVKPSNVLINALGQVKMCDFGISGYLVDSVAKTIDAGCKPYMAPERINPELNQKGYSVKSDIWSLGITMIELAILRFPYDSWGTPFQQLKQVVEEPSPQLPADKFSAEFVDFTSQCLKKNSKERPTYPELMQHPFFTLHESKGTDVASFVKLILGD

[15] = target: Tyrosine-protein kinase BTK (Homo sapiens, UniProt Q06187); assay: Selectivity interaction (KinomeScan (DiscoverX)) EUB0001619a BTK; details: at 1 µM
Chain of Tyrosine-protein kinase BTK (Q06187 whole entry): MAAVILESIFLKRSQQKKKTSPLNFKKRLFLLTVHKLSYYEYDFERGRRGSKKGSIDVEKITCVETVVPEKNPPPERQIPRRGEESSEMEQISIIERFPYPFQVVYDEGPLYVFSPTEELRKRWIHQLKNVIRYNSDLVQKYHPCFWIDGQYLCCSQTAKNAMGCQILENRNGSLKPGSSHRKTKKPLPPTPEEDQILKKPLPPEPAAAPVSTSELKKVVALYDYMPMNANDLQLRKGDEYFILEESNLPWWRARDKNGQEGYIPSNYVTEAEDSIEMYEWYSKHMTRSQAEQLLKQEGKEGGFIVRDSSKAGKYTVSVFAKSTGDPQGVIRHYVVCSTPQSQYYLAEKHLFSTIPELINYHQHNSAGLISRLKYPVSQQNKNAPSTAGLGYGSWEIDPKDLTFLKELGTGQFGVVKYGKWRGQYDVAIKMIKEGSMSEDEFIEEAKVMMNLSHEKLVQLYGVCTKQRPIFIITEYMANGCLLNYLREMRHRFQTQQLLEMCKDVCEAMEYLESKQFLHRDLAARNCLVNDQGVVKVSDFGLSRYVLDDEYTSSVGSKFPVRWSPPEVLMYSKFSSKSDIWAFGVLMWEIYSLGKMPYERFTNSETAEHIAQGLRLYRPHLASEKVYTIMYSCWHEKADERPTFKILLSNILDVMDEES

Chain of Platelet-derived growth factor receptor alpha (Homo sapiens), P16234 [T674I] (P16234 whole entry T674I): as the sequence (P16234 whole entry D842V) above, with T674I, V842D counted along it
Chain of Platelet-derived growth factor receptor alpha (P16234 whole entry): as the sequence (P16234 whole entry D842V) above, with V842D counted along it

Compound: Cn1cc(-n2cnc3c(NCc4nc5cc(Cl)c(Cl)cc5[nH]4)nc(N4CCOCC4)nc32)cn1
- % of control [1]: 4.9%
- % of control [2]: 8.82%
- % of control [3]: 7.9%
- % of control [4]: 19.4%

Compound: O=C(NOC[C@H](O)CO)c1ccc(F)c(F)c1Nc1ccc(I)cc1F
- % of control [5]: 83%

Compound: CC[C@@H]1[C@H](F)C(=O)N[C@@H]1COc1nccc2cc(C(N)=O)c(OC)cc12 [ZIMLOVISERTIB]
- % of inhibition [6]: -42.6%
- % of inhibition [7]: 2.7%

Compound: COCC(=O)NC/C=C/c1ccc2ncnc(Nc3ccc(Oc4ccc(C)nc4)c(C)c3)c2c1 [CP-724714]
- % of control [8]: 86%

Compound: CN(C)CCOc1ccc(-c2nc(-c3ccncc3)c(-c3ccc4c(c3)CC/C4=N\O)[nH]2)cc1
- % of control [9]: 100%

Compound: C=CC(=O)Nc1cc(-n2c(=O)ccc3cnc4ccc(-c5ccc(NS(C)(=O)=O)cc5)cc4c32)ccc1C
- % of control [10]: 51%

Compound: Nc1cnc(N2CCc3cc(S(=O)(=O)Nc4c(F)cc(Cl)cc4F)cc(N4CCCC4=O)c32)nc1 [TP-020n]
- % of control [11]: 86%

Compound: CCC(=O)N1CCN(c2ccc(-n3c(=O)ccc4cnc5ccc(-c6cnc7ccccc7c6)cc5c43)cc2C(F)(F)F)CC1
- % of control [12]: 76%
- % of control [13]: 6.2%

Compound: N#Cc1cccc(-c2c[nH]c3ncnc(N4CCOCC4)c23)c1
- % of control [14]: 80%
- % of control [15]: 100%
